Entries after “also recorded” stand apart in the source; their conditions may differ.
Legend:
apoaequorin [1] = target: T1, apoaequorin (Aequorea victoria, UniProt P07164); assay: Luminescence patterns of semi-synthetic aequorins, half decay time; format: biochemical; conditions: for Half decay time: semi-synthetic aequorin, time in which luminescence becomes half of maximum, patterns measured for 60 seconds
T1 construct: purchased Chisso Corporation
Description: A solution of the regenerated semi-synthetic aequorin was diluted to 10-fold with 20 mM Tris-HCl (pH 7.6) containing 0.1% BSA (manufactured by Sigma, Inc.), 0.01 mM EDTA and 150 mM NaCl. The dilution was dispensed into a 96-well microplate (Nunc #236108) at 5 μl/well. The luminescence reaction was triggered by injecting 50 mM Tris-HCl (pH 7.6) containing 50 mM calcium chloride solution at 100 μl/well. The luminescence patterns for 60 seconds were measured to determine half decay time of the luminescence (a time period in which the luminescence becomes half of the maximum luminescence intensity).

apoaequorin [2] = target: T1, apoaequorin; assay: Luminescence spectra of semi-synthetic aequorins; format: biochemical; conditions: semi-synthetic aequorin, calcium added, 22 to 25° C.
Description: In a quartz cell with light path length of 10 mm, 1 ml of 50 mM Tris-HCl (pH 7.6) containing 1 mM EDTA and 100 μl (100 μg protein) of a solution of the regenerated semi-synthetic aequorin were charged. Next, 100 μl of 50 mM Tris-HCl (pH 7.6) containing 0.1 ml of 10 mM calcium chloride solution was added thereto to start the luminescence reaction. The spectra were measured on a spectrofluorimeter (FP-6500, manufactured by Jasco Co., Ltd.) with the excitation light source turned off. The measurement conditions were bandwidth: 20 nm, response: 0.5 second, scan speed: 2000 nm/min and 22 to 25° C. The luminescence spectra measured were corrected.

apoaequorin [3] = target: T1, apoaequorin; assay: Fluorescence spectra of fluorescent proteins formed from semi-synthetic aequorins by Ca2+; format: physicochemical; conditions: for Maximum fluorescence wavelength λmax (nm) / Relative fluorescence intensity (rlu): fluorescent protein generated by calcium from semi-synthetic aequorin, excitation 330 nm, 25° C.; for fluorescence spectra of fluorescent proteins versus emission spectra of semi-synthetic aequorins, in words: same coelenterazine analogue
Description: The fluorescence spectra of novel fluorescent proteins formed by the Ca^2+-triggerd reaction from semi-synthetic aequorins in EXAMPLE 3 were measured at 25° C. in a quartz cell (10 mm light path length) using a Jasco FP-6500 spectrofluorometer (excitation wavelength: 330 nm, emission/excitation bandwidth: 3 nm; response: 0.5 sec, scan speed, 1000 nm/min). The fluorescence spectra measured were corrected.

[4] = target: T2, 19 kDa protein from Oplophorus luciferase (Oplophorus gracilirostris, UniProt Q9GV45); assay: Substrate specificity and luminescence activity of the 19 kDa protein from Oplophorus luciferase; format: biochemical; conditions: measured for 60 seconds, coelenterazine = 100
T2 construct: made in house
T2 sequence (Q9GV45 28-196): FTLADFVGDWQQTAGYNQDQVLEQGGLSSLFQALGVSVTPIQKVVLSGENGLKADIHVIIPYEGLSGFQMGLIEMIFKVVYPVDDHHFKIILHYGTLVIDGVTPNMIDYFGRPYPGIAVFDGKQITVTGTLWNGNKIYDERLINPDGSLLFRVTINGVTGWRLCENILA
Description: The 19 kDa protein from Oplophorus luciferase was purified by the method described in Inouye, S. and Sasaki, S., Protein Express. Purif. (2007) 56: 261-268 and provided for use.
(§1) After 1 μl of the 19 kDa protein (2.3 mg/ml) from Oplophorus luciferase containing 1 mM DTT was dissolved in 100 μl of 30 mM Tris-HCl (pH 7.6) containing 10 mM EDTA, 1 μl of a solution of coelenterazine or its analogue (1 μg/μl) in ethanol was added to the solution to start the luminescence reaction, and the luminescence activity was measured for 60 seconds on a luminometer luminescencer-PSN AB2200 (manufactured by Atto Co., Ltd.). The luminescence activity was determined by repeating the measurement described above 3 times and expressed in terms of the maximum luminescence intensity (Imax) of luminescence activity.

Gaussia luciferase = assay: Substrate specificity and luminescence activity of Gaussia luciferase; format: biochemical; conditions: measured for 10 seconds, coelenterazine = 100
Description: Gaussia luciferase was purified by the method described in Japanese Patent Application KOKAI No. 2008-099669 and provided for use. After 1 μl of Gaussia luciferase (0.024 mg/ml) was dissolved in 100 μl of phosphate buffered saline (manufactured by Sigma Inc.) containing 0.01% Tween 20 (manufactured by Sigma Inc.) and 10 mM EDTA, 1 μl of a solution of coelenterazine or its analogue (1 μg/μl) in ethanol was mixed with the solution to start the luminescence reaction. The luminescence activity was measured for 10 seconds on a luminometer luminescencer-PSN AB2200 (manufactured by Atto Co., Ltd.). The luminescence activity was determined by repeating the measurement described above 3 times and expressed in terms of the maximum luminescence intensity (Imax) of luminescence activity.

Renilla luciferase = target: T3, Renilla luciferase (Renilla reniformis, UniProt P27652); assay: Substrate specificity and luminescence activity of Renilla luciferase; format: biochemical; conditions: measured for 10 seconds, coelenterazine = 100
T3 construct: made in house
T3 sequence (P27652 1-311): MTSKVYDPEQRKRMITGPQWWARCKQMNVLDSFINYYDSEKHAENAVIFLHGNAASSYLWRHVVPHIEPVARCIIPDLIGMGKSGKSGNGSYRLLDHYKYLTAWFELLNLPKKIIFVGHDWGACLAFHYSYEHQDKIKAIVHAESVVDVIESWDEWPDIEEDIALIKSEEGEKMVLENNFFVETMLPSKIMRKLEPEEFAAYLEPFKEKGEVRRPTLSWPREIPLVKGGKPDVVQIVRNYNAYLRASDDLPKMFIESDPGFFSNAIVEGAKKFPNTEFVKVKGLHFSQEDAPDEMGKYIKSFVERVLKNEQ
Description: Renilla luciferase was purified by the method described in Inouye, S. & Shimomura, O. Biochem. Biophys. Res. Commun. (1997) 233: 349-353, and used for assay.
as §1, with “Renilla luciferase (0.45” for “the 19 kDa protein (2.3”, “mg/ml)” for “mg/ml) from Oplophorus luciferase containing 1 mM DTT”, “reaction. The” for “reaction, and the”, “10” for “60”, “measurement of luminescence activity” for “measurement”

apoaequorin [5] = target: T1, apoaequorin; assay: Calcium standard curve with semi-synthetic aequorins; format: biochemical; conditions: FIG. 3; Imax versus calcium concentration
Description: In 9 ml of 50 mM Tris-HCl (pH 7.6), 1 ml of 1 g/L calcium carbonate standard solution (manufactured by Wako Pure Chemicals) was diluted to prepare 10^−3 M calcium carbonate solution. One milliliter of the resulting 10^−3 M calcium carbonate solution was taken and added to 9 ml of 50 mM Tris-HCl (pH 7.6) to prepare 10^−4 M calcium carbonate solution. Next, 3 ml of the resulting 10^−4 M calcium carbonate solution was taken and added to 6 ml of 50 mM Tris-HCl (pH 7.6) to prepare […] calcium carbonate solution. One milliliter from the 10^−4 M calcium carbonate solution obtained was added to 9 ml of 50 mM Tris-HCl (pH 7.6) to prepare 10^−5 M calcium carbonate solution. Then, 3 ml of the resulting 10^−5 M calcium carbonate solution was taken and added to 6 ml of 50 mM Tris-HCl (pH 7.6) to prepare 3×10^−5 M calcium carbonate solution. A dilution series was prepared by successively repeating the procedures described above to give the 10^−3 M to 10^−8 M calcium standard solutions.
In 5 ml of 50 mM Tris-HCl (pH 7.6) containing 10 mM DTT and 30 mM EDTA, 5 mg of recombinant apoaequorin (manufactured by Chisso Corporation) was dissolved and 100 μg of coelenterazine analogue dissolved in ethanol in an amount of 1.2-fold equivalent was added to the solution. The mixture was allowed to stand at 4° C. overnight to convert into semi-synthetic aequorin. The resulting semi-synthetic aequorin was concentrated using Amicon Ultra-4 (manufactured by Millipore, Inc., molecular weight cut-off: 10,000) to remove an excessive of coelenterazine analogue. The mixture was then washed 3 times with 3 ml of 30 mM Tris-HCl (pH 7.6) containing 0.05 mM EDTA to give the solution of semi-synthetic aequorin containing 0.05 mM EDTA. This semi-synthetic aequorin solution (2.5 mg/ml) was diluted with 20 mM Tris-HCl (pH 7.6) containing 0.1% BSA (manufactured by Sigma), 0.01 mM EDTA and 150 mM NaCl.
The calcium standard solution prepared as above was dispensed into a 96-well microplate (Nunc #236108) at 50 μl/well and 10 μl of the diluted semi-synthetic aequorin solution was injected into 50 μl of various concentration of calcium standard solution. The luminescence intensity was measured for 60 seconds on a luminescence plate reader Centro LB960 (manufactured by Berthold) and expressed in terms of the maximum intensity (Imax) of luminescence. The luminescence intensity was measured on each semi-synthetic aequorin in the same procedures. Semi-synthetic aequorins for practically use were chosen by the maximum intensity (Imax) of luminescence and the calcium standard curve of semi-synthetic aequorin was prepared.

T1 sequence (P07164 other isoform, or with tags, fused parts or gaps with the stated changes): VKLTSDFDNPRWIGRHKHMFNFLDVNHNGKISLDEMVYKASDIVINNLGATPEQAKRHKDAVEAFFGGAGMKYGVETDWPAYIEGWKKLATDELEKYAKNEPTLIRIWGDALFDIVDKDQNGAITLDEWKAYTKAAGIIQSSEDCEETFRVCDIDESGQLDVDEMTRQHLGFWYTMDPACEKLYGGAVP

Compound | half decay time of luminescence compared to coelenterazine (native aequorin), in words (apoaequorin [1]) | Half decay time (apoaequorin [1]) [s] | Maximum luminescence wavelength λmax (nm) (apoaequorin [2]) | Maximum fluorescence wavelength λmax (nm) (apoaequorin [3]) | Relative fluorescence intensity (rlu) (apoaequorin [3]) | fluorescence spectra of fluorescent proteins versus emission spectra of semi-synthetic aequorins, in words (apoaequorin [3]) | Luminescence activity Imax (%) [4] [%] | Luminescence activity Imax (%) (Gaussia luciferase) | Luminescence activity Imax (%) (Renilla luciferase) | calcium standard curve with semi-synthetic aequorin, in words (apoaequorin [5])
O=c1c(Cc2ccc(O)cc2)nc2c(-c3ccccc3)[nH]c(-c3ccc(O)cc3)cn1-2 [Compound 3a, 2-(4-Hydroxybenzyl)-6-(4-hydroxyphenyl)-8-phenylimidazo[1,2-a]pyrazin-3(7H)-one] | markedly prolonged; also recorded: longer half decay time | 15.7 | 494.0 | 501.5 | 118.1 | different luminescence spectra and fluorescence spectra | 0.4 | 0.00 | 0.00 | calcium standard curve can be prepared
O=c1c(Cc2ccc(O)cc2)nc2c(/C=C/c3ccccc3)[nH]c(-c3ccc(O)cc3)cn1-2 [Compound 3b] | longer half decay time | 0.96 | 447.0 | 580.0 | 10.3 | markedly different; also recorded: different luminescence spectra and fluorescence spectra | 0.07 | 0.01 | 0.00 | calcium standard curve can be prepared
O=c1c(Cc2ccc(O)cc2)nc2c(-c3ccc(O)cc3)[nH]c(-c3ccc(O)cc3)cn1-2 [Compound 3j, 2-(4-Hydroxybenzyl)-6,8-bis(4-hydroxyphenyl)imidazo[1,2-a]pyrazin-3(7H)-one] | markedly prolonged; also recorded: longer half decay time | 16.8 | 457.5 | 580.0 | 13.3 | markedly different; also recorded: different luminescence spectra and fluorescence spectra | 0.2 | 0.01 | 0.03 | calcium standard curve can be prepared
O=c1c(Cc2ccc(O)cc2)nc2c(-c3cccc4ccccc34)[nH]c(-c3ccc(O)cc3)cn1-2 [Compound 3d, 2-(4-Hydroxybenzyl)-6-(4-hydroxyphenyl)-8-(naphthalen-1-yl)imidazo[1,2-a]pyrazin-3(7H)-one] | longer half decay time | 1.10 | 480.0 | 482.5 | 61.8 | – | 0.3 | 0.00 | 0.00 | calcium standard curve can be prepared
O=c1c(Cc2ccc(O)cc2)nc2c(-c3csc4ccccc34)[nH]c(-c3ccc(O)cc3)cn1-2 [Compound 3i, 8-(Benzo[b]thiophen-3-yl)-2-(4-hydroxybenzyl)-6-(4-hydroxyphenyl)imidazo[1,2-a]pyrazin-3(7H)-one] | – | – | – | – | – | – | 0.09 | 0.00 | 0.00 | –
Oc1ccc(Cc2nc3c(Cc4ccccc4)nc(-c4ccc(O)cc4)cn3c2O)cc1 [Coelenterazine] | – | 0.81 | 472.5 | 473.0 | 63.3 | – | 100.0 | 100.0 | 100.0 | –
O=c1c(Cc2ccc(O)cc2)nc2c(-c3ccsc3)[nH]c(-c3ccc(O)cc3)cn1-2 [Compound 3g, 2-(4-Hydroxybenzyl)-6-(4-hydroxyphenyl)-8-(thiophen-3-yl)imidazo[1,2-a]pyrazin-3(7H)-one] | – | – | – | – | – | – | 0.3 | 0.00 | 0.00 | –

— patent publication US9056840B2, “Coelenterazine analogues and coelenteramide analogues” (JNC Corporation, priority 2010, dated 2015)
